Data taken from ChEMBL document CHEMBL1135147, “8-Methoxyquinolines as PDE4 inhibitors” (Bioorg Med Chem Lett, 2002).

Legend:
[1] = biological target: Phosphodiesterase 3 (Homo sapiens) (UniProt Q14432+Q13370); experiment: Inhibition of human platelet Phosphodiesterase 3 at 20 uM
Phosphodiesterase 4 [2] = biological target: Phosphodiesterase 4 (Rattus norvegicus, UniProt P14270+P14646+P14644+P54748); experiment: Inhibition of rolipram binding to PDE4 in rat brain; assay type: tissue-based
Phosphodiesterase 4 [3] = biological target: T1, Phosphodiesterase 4 (Homo sapiens, UniProt P27815+Q08499+Q07343+Q08493); experiment: Inhibition of Phosphodiesterase 4 from human U937 cells; assay type: cell-based; settings: u-937
Phosphodiesterase 4 [4] = biological target: T1, Phosphodiesterase 4; experiment: Relative inhibition of PDE4 activity and rolipram binding; assay type: protein assay

Row | SMILES | inhibition [1] [%] | IC50 (Phosphodiesterase 4 [2]) [nM] | IC50 (Phosphodiesterase 4 [3]) [nM] | Ratio (Phosphodiesterase 4 [4])
1 | COc1ccc(C(=O)Nc2c(Cl)cncc2Cl)c2cccnc12 | 10 | – | – | –
2 | COc1ccc(C(=O)Nc2c(Cl)cncc2Cl)c2ccc(C#N)nc12 | 38 | 43 | 700 | 16.3
3 | CCc1cnc2c(OC)ccc(C(=O)Nc3c(Cl)cncc3Cl)c2c1 | 12 | 160 | 210 | 1.31
4 | COc1ccc(C(=O)Nc2c(Cl)cncc2Cl)c2ccc(C(F)(F)F)nc12 | 15 | 77 | 51 | 0.66

Now from value to compound:

Row | inhibition [1] [%] | IC50 (Phosphodiesterase 4 [2]) [nM] | IC50 (Phosphodiesterase 4 [3]) [nM] | Ratio (Phosphodiesterase 4 [4]) | SMILES
5 | 30 | 790 | 180 | 0.22 | COc1ccc(C(=O)Nc2c(Cl)cncc2Cl)c2ccc(C(C)O)nc12 (stereo not drawn)
6 | 22 | 140 | 210 | 1.5 | CON=C(C)c1ccc2c(C(=O)Nc3c(Cl)cncc3Cl)ccc(OC)c2n1
7 | 27 | 1500 | 440 | 0.29 | COc1ccc(C(=O)Nc2c(Cl)cncc2Cl)c2ccc(C(C)=O)nc12
8 | 21 | 74 | 88 | 1.19 | COc1ccc(C(=O)Nc2c(Cl)cncc2Cl)c2ccc(C)nc12
9 | 35 | 75.3 | 43 | 0.57 | CCc1ccc2c(C(=O)Nc3c(Cl)cncc3Cl)ccc(OC)c2n1
